Laboratory results: USRE50230E1, “Method of treatment of hypoxia inducible factor (HIF)-related conditions” (GRIFOLS WORLDWIDE OPERATIONS LIMITED, priority 2014, dated 2024)

Key:
[1] = tested on: renal proximal tubule epithelial (RPTEC) cells; test: Cell Titer Glow viability assay, RPTEC cells; format: cell-based, human; conditions: 48 hours
Experimental: (§1) Considering the anticipated safety profile of a human plasma protein, toxicity of DFO and transferrins (majority Apo, majority Holo and mixtures) was assessed in primary human kidney cells. The renal proximal tubule epithelial (RPTEC) or cortical epithelial (HRCE) cells were treated with the indicated concentrations of majority ApoTf or DFO for 48 hours (FIG. 11A); and RPTEC or HRCE cells were treated for 72 hrs with 4 mg/mL of majority ApoTf, majority HoloTf, mixtures of transferrin (FIG. 11B). After 48 or 72 hours, cells were subjected to a Cell Titer Glow viability assay. Control cells, untreated cells, were set to a value of 100% viable. The average viability and standard deviations are shown for each treatment condition.

[2] = tested on: cortical epithelial (HRCE) cells; test: Cell Titer Glow viability assay, HRCE cells; format: cell-based, human; conditions: 48 hours
Experimental: as §1

HIF1alpha protein = HIF1alpha protein levels by ELISA in SH-SY5Y cells; format: cell-based, human
Experimental: Human neuroblastoma SH-SY5Y cell line cells, cultured in serum free media were treated with plasma derived ApoTf and HoloTf (in both cases at a concentration of 1 mg/mL and 4 mg/mL) for 6 hours under normoxia (21% oxygen) and hypoxia conditions (1% oxygen). […] After 6 hrs intracellular proteins were harvested and tested for HIF1alpha protein levels by ELISA.
Experiment performed in example 1 was repeated but performing treatments for 24 hours and only under normoxic conditions. After 24 hrs intracellular proteins were harvested and tested for HIF1 alpha protein levels by ELISA.
After 6 hrs, intracellular proteins were harvested and tested for HIF1 alpha protein levels by ELISA.
To determine whether Apotransferrin increases the potency of the iron chelator, DFO, and the phd2 inhibitor IOX2; SH-SY5Y neuronal cells cultured in serum free media were treated with 4 mg/mL of the indicated proteins in the presence or absence of small molecule drug under normal oxygen levels. The data shown in FIG. 8A relates to treatment of cells with a combination of DFO or IOX2, at the indicated concentrations, plus 4 mg/mL protein. CoCl2 was used as an experimental positive control. The data shown in FIG. 8B relates to treatment of cells with a combination of 10 uM M30 plus/minus 4 mg/mL protein. The data shown in FIG. 8C relates to treatment of cells with a combination of 200 uM DFO plus/minus 4 mg/mL protein. After 6 hrs intracellular proteins were harvested and tested for HIF1 alpha protein levels by ELISA. Data are shown in pg/mL with standard deviation.

Glut1 = Glut1 mRNA expression by qPCR in SH-SY5Y cells; format: cell-based, human
Experimental: (§2) The stabilization of, and increase in, HIF-1α protein typically leads to an up-regulation of HIF-related genes (increase in the transcription of genes targeted by HIF), i.e. genes that have HIF binding sites in their transcriptional regulatory elements. Two well characterized genes that are activated by HIF-1α protein are Glut1 receptor and VEGF. Therefore, in order to analyze mRNA expression changes in each of these HIF target genes SH-SY5Y cell line cells were cultured and treated with majority ApoTf or majority HoloTf at a concentration of 1 mg/mL and 4 mg/mL under normoxic (21% oxygen) or hypoxic (1% oxygen) conditions for 6 hours. As a negative controls, cells were treated with HSA (1 mg/mL or 4 mg/mL) or were left untreated. After 6 hrs, intracellular mRNA was harvested and tested for Glut1 and VEGF expression levels by qPCR. Expression results were calculated relative to the expression of the corresponding transcript seen in untreated cells. FIGS. 4A and 4B show the expression results obtained for Glut1 receptor and VEGF, respectively. Values in the figures are shown as Relative Gene Expression, with the target gene (Glut1 or VEGF) normalized for housekeeper (beta-actin) expression.
(§3) In addition, mRNA expression levels of Glut1 and VEGF in response to majority Apotransferrin and DFO or IOX2 combinations were determined. […] Where indicated, either 200 uM DFO or 1 uM IOX2 were co-treated with the HSA and majority Apotransferrin. After 6 hr treatments, intracellular mRNA was harvested and tested for Glut1 and VEGF expression levels by qPCR. Values are shown as Relative Gene Expression, with the target gene (Glut1 or VEGF) normalized for housekeeper (beta-actin) expression. Standard deviations are shown.

VEGF = VEGF mRNA expression by qPCR in SH-SY5Y cells; format: cell-based, human
Experimental: as §2, §3

SH-SY5Y cells [3] = test: Cell Titer Glow viability assay, SH-SY5Y cells; format: cell-based, human; conditions: 4 mg/mL, 72 hours
Experimental: Since it has been reported that HoloTf is toxic to cells in vivo and in vitro, toxicity of various compositions containing majority ApoTf, majority HoloTf or mixtures of ApoTf+HoloTf was tested in SH-SY5Y cells. SH-SY5Y cells were treated with the indicated concentrations of 4 mg/mL Tf (as indicated in FIG. 5A), M30 or DFO for 72 hours. After 72 hours, cells were subjected to a Cell Titer Glow viability assay. Control cells, untreated cells, were set to a value of 100% viable. The average viability and standard deviations are shown for each treatment condition.

[4] = Modified Bederson and General Behavioral scores in rats; format: in vivo, rat; conditions: rats intravenously treated
Experimental: In vivo neurological function was assessed by a modified Bederson score (Bederson et al., 1986b; Crumrine et al., 2011) using the following definitions:
Score 0: No apparent neurological deficits;
Score 1: Body torsion present;
Score 2: Body torsion with right side weakness;
Score 3: Body torsion, right side weakness with circling behavior; and
Score 4: Seizure Activity.
General behavioral scores of rats were developed by the CALS personnel for the purpose of monitoring recovery of animals following surgical procedures (standard CALS post-operative care). A numerical value was assigned to the predetermined behavioral observations.
Score 0: Behavior consistent with a normal naïve rat (i.e. no ipsilateral deficit);
Score 1: Bright/active/responsive; the rat spontaneously moves and explores his cage, responds to external stimuli, explores the top of the cage;
Score 2: Quiet/alert/responsive; reserved behavior but will respond to external stimulus, tends not to rear or explore the top of the cage;
Score 3: Depressed behavior: tends not to move unless prodded, quickly returns to a somnolent state, little to no interest in external stimuli;
Score 4: Unresponsive: remains in a prostrate position even when prodded; and Score 5: Seizure activity requiring euthanasia.

[5] = MCAo (Middle Cerebral Artery occlusion) rat model of brain stroke, infarct volume; format: in vivo; conditions: 385 mg/kg, IV, transient MCAo rat
SH-SY5Y cells [6] = test: Protection from oligomerized Abeta 1-42 toxicity, ApoGlo caspase 3/7 activation assay; format: cell-based, human; conditions: for inherent toxicity: 4 mg/mL; for protection from Abeta induced toxicity (caspase 3/7 induction): 4 mg/mL for 24 hrs, then oligomerized Abeta1-42 for 72 hours
Text: Upregulation of the HIF pathway is known to play a protective role in a number of neurodegenerative diseases, including pathologies that result in destruction of nerve cells and neurons. Such neurodegenerative diseases include Alzheimer's disease, Parkinson's disease, Huntington's disease, and Amylotrophic Lateral Sclerosis. Since treatment of SH-SY5Y upregulates HIF, treatment of cells with Apo- or Holo-transferrin should provide a protective effect on cells subjected to substances known to induce neurodegeneration. FIG. 7 highlights data assessing whether majorities of Apo- and Holo-transferrin could protect SH-SY5Y cells from the toxic effects of the known neurodegenerative toxin oligomerized Abeta 1-42 peptide (FIG. 7). SH-SY5Y neuronal cells cultured in growth media were treated with 4 mg/mL Apo-transferrin or Holo-transferrin for 24 hrs under normal oxygen levels. After 24 hrs, cells were treated with oligomerized Abeta1-42 peptide for an additional 72 hours. Following treatment with oligomerized Abeta1-42, cells were subjected to a ApoGlo caspase 3/7 activation assay. Control cells, untreated cells, were set to a normalized value of 1. The average caspase induction, relative to control cells, and standard deviations are shown for each treatment condition.

HIF1 alpha protein [7] = test: HIF1 alpha protein levels by ELISA in RPTEC cells; format: cell-based, human; conditions: 4 mg/mL, 6 hrs, normal oxygen
Text: (§4) It is well-known in the art that many small molecules used for the treatment of conditions related or provoked by hypoxia are toxic and have numerous side effects, e.g. DFO. One of the most apparent side effects of said small molecules is kidney toxicity. Therefore, in order to assess whether transferrin and/or mixtures increase HIF1 alpha levels in primary kidney cells; human primary kidney cells, both primary human renal proximal tubule epithelial (RPTEC) or cortical epithelial cells (HRCE) were obtained. Primary human renal proximal tubule epithelial (RPTEC) or primary cortical epithelial (HRCE) cells cultured in serum free media were treated with 4 mg/mL majority Apo-transferrin, majority Holo-transferrin or various mixtures of each for 6 hrs under normal oxygen levels. After 6 hrs intracellular proteins were harvested and tested for HIF1 alpha protein levels by ELISA. FIGS. 10A and 10B reveal that HIF1 alpha levels are induced with transferrin composed of mixtures of Apo-transferrin and Holo-transferrin in RPTEC and HRCE, respectively.

HIF1 alpha protein [8] = test: HIF1 alpha protein levels by ELISA in HRCE cells; format: cell-based, human; conditions: 4 mg/mL, 6 hrs, normal oxygen
Text: as §4

NCI-H1650 = test: Cell Titer Glow viability assay, NCI-H1650; format: cell-based, human; conditions: 4 mg/mL, 72 hours
Experimental: (§5) Given the anticipated safety profile of a human plasma protein, toxicity of transferrins (majority Apo, majority Holo and pd-transferrin) in NCI-H1650 and primary human hepatocyte cells was assessed. The human lung cell line, NCI-H1650, and primary human hepatocytes were treated for 72 hours with 4 mg/mL of majority ApoTf, majority HoloTf, or pd-transferrin. After 72 hours, cells were subjected to a Cell Titer Glow viability assay. Control cells, untreated cells, were set to a value of 100% viable. The average viability and standard deviations are shown in FIGS. 14A and 14B for each treatment condition.

[9] = tested on: primary human hepatocytes; test: Cell Titer Glow viability assay, primary human hepatocytes; format: cell-based; conditions: 4 mg/mL, 72 hours
Experimental: as §5

[10] = 1 mg/mL, 6 hours, hypoxia (1% oxygen), SH-SY5Y
[11] = 1 mg/mL, 6 hours, normoxia (21% oxygen), SH-SY5Y
[12] = 1 mg/mL, 24 hours, normoxic, SH-SY5Y
[13] = 4 mg/mL, 6 hours, hypoxia (1% oxygen), SH-SY5Y
[14] = 4 mg/mL, 6 hours, normoxia (21% oxygen), SH-SY5Y
[15] = 4 mg/mL, 24 hours, normoxic, SH-SY5Y
[16] = 6 hours, normoxic, SH-SY5Y (FIG. 3)
[17] = 4 mg/mL, co-treated with 200 uM DFO or 1 uM IOX2, 6 hr, normal oxygen
[18] = hypoxic (1% oxygen), 6 hours, 1 mg/mL and 4 mg/mL
[19] = normoxic (21% oxygen), 6 hours, 1 mg/mL and 4 mg/mL

Row | Compound | toxicity (cell viability) [1] | toxicity (cell viability) [2] | HIF-1α cellular protein levels (HIF1alpha protein; [10]) | HIF-1α cellular protein levels (HIF1alpha protein; [11]) | HIF-1α cellular protein levels (HIF1alpha protein; [12]) | HIF-1α cellular protein levels (HIF1alpha protein; [13]) | HIF-1α cellular protein levels (HIF1alpha protein; [14]) | HIF-1α cellular protein levels (HIF1alpha protein; [15]) | HIF-1α cellular protein levels (HIF1alpha protein; [16]) | toxicity (cell viability) (SH-SY5Y cells [3]) | modified Bederson and General Behavioral scores [4] | inherent toxicity (SH-SY5Y cells [6]) | protection from Abeta induced toxicity (caspase 3/7 induction) (SH-SY5Y cells [6]) | HIF1 alpha levels (HIF1 alpha protein [7]) | HIF1 alpha levels (HIF1 alpha protein [8]) | toxicity (cell viability) (NCI-H1650) | toxicity (cell viability) [9] | also measured
1 | CC(=O)N(O)CCCCCNC(=O)CCC(=O)N(O)CCCCCNC(=O)CCC(=O)N(O)CCCCCN [DFO, deferoxamine, reference compound] | significant toxicity | significant toxicity | – | – | – | – | – | – | – | – | – | – | – | – | – | – | – | –
2 | majority ApoTf: plasma derived transferrin composition, majority iron-free apo-transferrin (98% ApoTf, 2% HoloTf) | none of the transferrin molecules showed any detrimental effects | none of the transferrin molecules showed any detrimental effects | significant increase | significant increase | increased | significant increase | significant increase | increased | increase | No toxic effects | neither compositions of majority ApoTf nor majority HoloTf showed significant differences | lack of inherent toxicity | protect SH-SY5Y cells from Abeta induced toxicity | Induce | Induce | no toxicity | no toxicity | effect on HIF1 alpha protein levels in combination with M30 (HIF1alpha protein; 4 mg/mL protein plus 10 uM M30, 6 hrs, normal oxygen, SH-SY5Y): synergistic effects; effect on HIF1 alpha protein levels in combination with DFO (HIF1alpha protein; 4 mg/mL protein plus 200 uM DFO, 6 hrs, normal oxygen, SH-SY5Y): synergistic effects; Glut1 mRNA levels in combination with small molecule activators of the HIF pathway (Glut1; [17]): increase synergistically and additively; Glut1 mRNA expression relative to HSA controls (Glut1; [18]): significantly increased; VEGF mRNA levels in combination with small molecule activators of the HIF pathway (VEGF; [17]): increase synergistically and additively; VEGF mRNA expression relative to HSA controls (VEGF; [18]): significantly increased; volume of the infarcted area vs saline control [5]: significant decrease
3 | majority HoloTf: plasma derived transferrin composition, majority diferric holo-transferrin (30% ApoTf, 70% HoloTf) | – | – | significant increase | significant increase | tendency towards an increase | tendency towards an increase | significant increase | significant increase | increase | no toxicity or detrimental effects | no detrimental effects | lack of inherent toxicity | protect SH-SY5Y cells from Abeta induced toxicity | Induce | Induce | no toxicity | no toxicity | Glut1 mRNA expression (Glut1; [19]): increased expression; VEGF mRNA expression (VEGF; [19]): increased expression of only Glut1
